Data as given in patent US20250145633A1, “SUBSTITUTED FURANOPYRIMIDINE COMPOUNDS AS PDE1 INHIBITORS” (Dart NeuroScience, LLC, priority 2017, published 2025).

Biological target: human PDE1B enzyme (Homo sapiens (Human), UniProt Q01064)
Experiment: IMAP TR-FRET PDE1B enzymatic assay
Format: biochemical
Settings: negative log of half-maximal molar inhibitory concentration, 200 nM FAM-cAMP, values given as bins; for IC50: read-out: PDE1b (pIC50) (converted)
In short: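 Full-length GST-tagged human PDE1B (250 pg/well) in IMAP BSA buffer with 10 U/ml calmodulin and 2.5 mM CaCl2; compound pre-incubated 5 min at room temperature, then 200 nM (final) FAM-cAMP for 30 min. IMAP binding reagent/Tb added, 1 h; TR-FRET 520/490 ratio read. IC50 from sigmoidal dose-response fit.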

| Structure (SMILES) | IC50 | PDE1b (pIC50) |
| --- | --- | --- |
| Cc1oc2ncnc(NC3(C)CC3)c2c1C(=O)NC(C)c1cncnc1 (stereo not shown) [Example 710, 6-Methyl-4-[(1-methylcyclopropyl)amino]-N-[1-(pyrimidin-5-yl)ethyl]furo[2,3-d]pyrimidine-5-carboxamide] | 10 to 100 nM | – |
| COc1ccc(CNC(=O)c2c(C)oc3ncnc(NC4(C)CC4)c23)nn1 [Example 711, N-[(6-Methoxypyridazin-3-yl)methyl]-6-methyl-4-[(1-methylcyclopropyl)amino]furo[2,3-d]pyrimidine-5-carboxamide] | 10 to 100 nM | – |
| COc1nc(C)nc2c1CN(C(=O)c1c(C)oc3ncnc(NC4(C)CC4)c13)CC2 [Example 712, 5-{4-Methoxy-2-methyl-5H,6H,7H,8H-pyrido[4,3-d]pyrimidine-6-carbonyl}-6-methyl-N-(1-methylcyclopropyl)furo[2,3-d]pyrimidin-4-amine] | 10 to 100 nM | – |
| Cc1oc2ncnc(NC3(C)CC3)c2c1C(=O)NCc1ncco1 [Example 713, 6-Methyl-4-[(1-methylcyclopropyl)amino]-N-(1,3-oxazol-2-ylmethyl)furo[2,3-d]pyrimidine-5-carboxamide] | 10 to 100 nM | – |
| COc1ccc2oc(CNC(=O)c3c(C)oc4ncnc(NC5(C)CC5)c34)nc2c1 [Example 714, N-[(5-Methoxy-1,3-benzoxazol-2-yl)methyl]-6-methyl-4-[(1-methylcyclopropyl)amino]furo[2,3-d]pyrimidine-5-carboxamide] | – | >8 |
| Cc1oc2ncnc(NC3(C)CC3)c2c1C(=O)NCc1nccn1C [Example 715, 6-Methyl-N-[(1-methyl-1H-imidazol-2-yl)methyl]-4-[(1-methylcyclopropyl)amino]furo[2,3-d]pyrimidine-5-carboxamide] | 10 to 100 nM | – |
| Cc1oc2ncnc(NC3(C)CC3)c2c1C(=O)NCc1ncc(Cl)cn1 [Example 716, N-[(5-Chloropyrimidin-2-yl)methyl]-6-methyl-4-[(1-methylcyclopropyl)amino]furo[2,3-d]pyrimidine-5-carboxamide] | – | >8 |
| Cc1nnc(CNC(=O)c2c(C)oc3ncnc(NC4(C)CC4)c23)o1 [Example 717, 6-Methyl-N-[(5-methyl-1,3,4-oxadiazol-2-yl)methyl]-4-[(1-methylcyclopropyl)amino]furo[2,3-d]pyrimidine-5-carboxamide] | 10 to 100 nM | – |
| Cc1ccc(CNC(=O)c2c(C)oc3ncnc(NC4(C)CC4)c23)nn1 [Example 718, 6-Methyl-4-[(1-methylcyclopropyl)amino]-N-[(6-methylpyridazin-3-yl)methyl]furo[2,3-d]pyrimidine-5-carboxamide] | 10 to 100 nM | – |
| Cc1oc2ncnc(NC3(C)CC3)c2c1C(=O)NCc1cn2ccnc2cn1 [Example 719, N-{Imidazo[1,2-a]pyrazin-6-ylmethyl}-6-methyl-4-[(1-methylcyclopropyl)amino]furo[2,3-d]pyrimidine-5-carboxamide] | 10 to 100 nM | – |
| Cc1oc2ncnc(NC3(C)CC3)c2c1C(=O)NC1CN(c2ccncn2)C1 [Example 720, 6-Methyl-4-[(1-methylcyclopropyl)amino]-N-[1-(pyrimidin-4-yl)azetidin-3-yl]furo[2,3-d]pyrimidine-5-carboxamide] | 100 to 1000 nM | – |
| Cc1oc2ncnc(NC3(C)CC3)c2c1C(=O)Nc1ccc(C2CCOCC2)cc1 [Example 721, 6-Methyl-4-[(1-methylcyclopropyl)amino]-N-[4-(oxan-4-yl)phenyl]furo[2,3-d]pyrimidine-5-carboxamide] | 100 to 1000 nM | – |
| Cc1oc2ncnc(NC3(C)CC3)c2c1C(=O)NCc1ccc(OC(F)(F)F)cc1 [Example 722, 6-Methyl-4-[(1-methylcyclopropyl)amino]-N-{[4-(trifluoromethoxy)phenyl]methyl}furo[2,3-d]pyrimidine-5-carboxamide] | 10 to 100 nM | – |
| Cc1oc2ncnc(NC3(C)CC3)c2c1C(=O)NCc1ccc(OC(F)(F)F)cc1F [Example 723, N-{[2-Fluoro-4-(trifluoromethoxy)phenyl]methyl}-6-methyl-4-[(1-methylcyclopropyl)amino]furo[2,3-d]pyrimidine-5-carboxamide] | 10 to 100 nM | – |
| Cc1oc2ncnc(NC3(C)CC3)c2c1C(=O)NCCc1nc2cc(F)ccc2[nH]1 [Example 724, N-[2-(5-Fluoro-1H-1,3-benzodiazol-2-yl)ethyl]-6-methyl-4-[(1-methylcyclopropyl)amino]furo[2,3-d]pyrimidine-5-carboxamide] | 10 to 100 nM | – |
| Cc1oc2ncnc(NC3(C)CC3)c2c1C(=O)NCc1nc2ccc(F)cc2n1C [Example 725, N-[(6-Fluoro-1-methyl-1H-1,3-benzodiazol-2-yl)methyl]-6-methyl-4-[(1-methylcyclopropyl)amino]furo[2,3-d]pyrimidine-5-carboxamide] | 10 to 100 nM | – |
| CCc1nccc(CNC(=O)c2c(C)oc3ncnc(NC4(C)CC4)c23)n1 [Example 726, N-[(2-Ethylpyrimidin-4-yl)methyl]-6-methyl-4-[(1-methylcyclopropyl)amino]furo[2,3-d]pyrimidine-5-carboxamide] | 10 to 100 nM | – |
| Cc1oc2ncnc(NC3(C)CC3)c2c1C(=O)Nc1ccc(C2CCOCC2)cn1 [Example 727, 6-Methyl-4-[(1-methylcyclopropyl)amino]-N-[5-(oxan-4-yl)pyridin-2-yl]furo[2,3-d]pyrimidine-5-carboxamide] | 10 to 100 nM | – |
| Cc1nc(CNC(=O)c2c(C)oc3ncnc(NC4(C)CC4)c23)oc1C [Example 728, N-[(Dimethyl-1,3-oxazol-2-yl)methyl]-6-methyl-4-[(1-methylcyclopropyl)amino]furo[2,3-d]pyrimidine-5-carboxamide] | 10 to 100 nM | – |
| Cc1oc2ncnc(NC3(C)CC3)c2c1C(=O)NCc1nc2cc(F)ccc2[nH]1 [Example 729, N-[(5-Fluoro-1H-1,3-benzodiazol-2-yl)methyl]-6-methyl-4-[(1-methylcyclopropyl)amino]furo[2,3-d]pyrimidine-5-carboxamide] | 10 to 100 nM | – |
| Cc1oc2ncnc(NC3(C)CC3)c2c1C(=O)NCCc1nc2cc(F)ccc2o1 [Example 730, N-[2-(5-Fluoro-1,3-benzoxazol-2-yl)ethyl]-6-methyl-4-[(1-methylcyclopropyl)amino]furo[2,3-d]pyrimidine-5-carboxamide] | 10 to 100 nM | – |
| COc1cnc(CNC(=O)c2c(C)oc3ncnc(NC4(C)CC4)c23)cn1 [Example 731, N-[(5-Methoxypyrazin-2-yl)methyl]-6-methyl-4-[(1-methylcyclopropyl)amino]furo[2,3-d]pyrimidine-5-carboxamide] | 10 to 100 nM | – |
| Cc1oc2ncnc(NC3(C)CC3)c2c1C(=O)NCc1cnc(C2CC2)cn1 [Example 732, N-[(5-Cyclopropylpyrazin-2-yl)methyl]-6-methyl-4-[(1-methylcyclopropyl)amino]furo[2,3-d]pyrimidine-5-carboxamide] | 10 to 100 nM | – |
| Cc1oc2ncnc(NC3(C)CC3)c2c1C(=O)NCc1nc2cc(F)ccc2n1C [Example 733, N-[(5-Fluoro-1-methyl-1H-1,3-benzodiazol-2-yl)methyl]-6-methyl-4-[(1-methylcyclopropyl)amino]furo[2,3-d]pyrimidine-5-carboxamide] | 10 to 100 nM | – |
| Cc1oc2ncnc(NC3(C)CC3)c2c1C(=O)NCCc1nc2cc(F)ccc2n1C [Example 734, N-[2-(5-Fluoro-1-methyl-1H-1,3-benzodiazol-2-yl)ethyl]-6-methyl-4-[(1-methylcyclopropyl)amino]furo[2,3-d]pyrimidine-5-carboxamide] | 10 to 100 nM | – |
